Test results from patent publication US20230399312A1, “SUBSTITUTED PYRIMIDINES AND METHODS OF USE” (THERAVANCE BIOPHARMA R&D IP, LLC, priority 2020, published 2023).
pKi: −log10 of the molar value.

Columns and labels:
[1] = target: T1, recombinant human ALK5 (TGF-βR1) protein (Homo sapiens, UniProt P36897); experiment: Biochemical ALK5 (TGF-βR1) assay to measure pKi (LANCE Ultra ULight kinase assay); conditions: apparent pKi, converted from pIC50 by Cheng-Prusoff
T1 construct: purchased Life Technologies PR9075A
T1 sequence (P36897 34-503): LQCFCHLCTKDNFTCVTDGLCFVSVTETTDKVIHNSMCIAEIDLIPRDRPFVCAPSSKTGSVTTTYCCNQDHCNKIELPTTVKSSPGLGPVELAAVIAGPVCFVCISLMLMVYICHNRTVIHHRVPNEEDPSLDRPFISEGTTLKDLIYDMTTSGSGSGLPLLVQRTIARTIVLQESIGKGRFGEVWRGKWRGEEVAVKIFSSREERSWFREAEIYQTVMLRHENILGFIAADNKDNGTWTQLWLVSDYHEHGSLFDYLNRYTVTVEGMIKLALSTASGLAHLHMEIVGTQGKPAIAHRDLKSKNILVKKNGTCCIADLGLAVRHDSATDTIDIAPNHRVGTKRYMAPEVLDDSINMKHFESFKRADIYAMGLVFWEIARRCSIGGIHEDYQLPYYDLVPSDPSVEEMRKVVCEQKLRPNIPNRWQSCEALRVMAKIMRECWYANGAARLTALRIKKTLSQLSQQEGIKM
Procedure: The assays were performed in a 384-well plate (24 columns×16 wells/rows). An Echo®550 Liquid Handler (Labcyte) was used to prepare various intermediate concentrations of compounds of the present disclosure in 100% DMSO. From the intermediate concentrations, a range of concentrations (from […] to 25 μM corresponding to volumes up to 105 nL) were prepared and ejected into a final assay plate to be used to create individual dose response curves for each of the subject compounds. To a separate column within the assay plate, 105 nL of DMSO in each well was used to establish a maximum assay signal. Additionally, 105 nL of 100 μM SD-208, a selective TGF-βR1 inhibitor (Catalog #S7624, Selleck Chemicals), was used in another column of wells to establish a minimal assay signal.
With a multidrop dispenser, 8 μL of enzyme mixture (1.25× final) was added to each well. […] The plate was then sealed with an adhesive seal and allowed to equilibrate for 60 minutes at room temperature.
Next, 2 μL of 125 μM ATP (5×final, 125 μM ATP prepared in assay buffer with 2 mM DTT) was added to the incubated mixtures, covered with a MicroClime® Environmental Lid (Product No. LLS-0310, Labcyte) and immediately transferred to 37° C. The reactions were allowed to proceed at 37° C. for 60 minutes before terminating with the addition of 10 μL of detection antibody (LANCE® (lanthanide chelate excite) Ultra Europium-anti-phospo-DNA Topoisomerase 2-alpha (Thr1342)) in detection mixture (12 mM EDTA, 4 nM detection antibody prepared in detection buffer (50 mM Tris-HCl, 150 mM NaCl, 0.5% BSA (Fraction V), pH 7.0)) at room temperature. The plate was then read on a Perkin Elmer EnVision Plate Reader using europium specific reader settings with excitation and emission wavelengths set to 320 or 340 nm and 665 nm, respectively.
For dose-response analyses, percent inhibition versus compound concentrations were plotted, and pIC50 values were determined from a 4-parameter robust fit model with GraphPad Prism V5 Software (GraphPad Software, Inc., La Jolla, CA). This model obtains pIC50 values by fitting the sigmoidal dose-response (variable slope) equation to the data. Results were expressed as pIC50 (negative logarithm of IC50) and subsequently converted to pKi (negative logarithm of dissociate constant, Ki) using the Cheng-Prusoff equation. The higher the value of pKi (lower value of Ki), the greater the inhibition of ALK5 activity.

[2] = test system: TGF-β-stimulated SMAD3 phosphorylation in BEAS-2B cells; experiment: Cellular ALK5 potency assay, inhibition of TGF-β stimulated pSMAD3 formation in BEAS-2B cells; assay type: cell-based; conditions: Homo sapiens, pSMAD3, TGF-β 10 ng/mL, read-out: BEAS2B pIC50 (converted)
Procedure: The potency of compounds of the present disclosure for inhibition of TGF-β-stimulated SMAD3 phosphorylation was measured in BEAS-2B cells, a human lung epithelial cell line. TGF-β signals through activin receptor-like kinase 5 (ALK5) immediately prior to SMAD3 phosphorylation.
BEAS-2B cells were grown using 50% DMEM (Life Technologies) and 50% F-12 (Life Technologies) media, supplemented with 10% Fetal Bovine Serum (ATCC), 25 mM HEPES (Life Technologies), and 1×Pen-Strep (Life Technologies). Cells were cultured in a humidified incubator set at 37° C., 5% CO2, and trypsonized using 0.25% Trypsin with 0.5% polyvinylpyrrolidone (PVP).
For the assay, BEAS-2B cells were seeded at 7,500 cells/well (25 μL/well) in a 384-well plate and cultured overnight. Before dosing, growth media was aspirated and the wells were rinsed with HBSS Buffer (HBSS with Calcium and Magnesium, Life Technologies) supplemented with 25 mM HEPES (Life Technologies) and 1% Bovine Serum Albumin (Roche). Compounds were serially diluted in DMSO, then further diluted with supplemented HBSS Buffer (50 μL/well) to create a compound plate 3× of the final assay concentration, at 0.3% DMSO. The diluted compounds were then added to the cells (8 μL/well) and incubated at 37° C., 5% CO2 for 1 hour. After the compound incubation, TGF-β (R&D Systems) reconstituted in supplemented HBSS Buffer was added to the cells ([…], final concentration 10 ng/mL) and incubated for a further 30 minutes, after which the cells were immediately lysed with AlphaLISA lysis buffer (PerkinElmer). AlphaLISA Acceptor and Detector beads (PerkinElmer) were added 2 hours apart, then incubated overnight to be read the next day. The potency of the compound was determined through analysis of dose-dependent quantified changes in pSMAD3 signal from baseline (non-compound treated TGF-β stimulated cells). Data are expressed as pIC50 (negative decadic logarithm IC50) values.

Row | Structure (SMILES) | pKi [1] | IC50 [2] [nM]
1 | Cc1cccc(-c2nccc(Nc3ccnc(Nc4csc(C(=O)OCCN5CCC[C@@H](N)C5)c4)n3)n2)n1 [Compound 598, 2-[(3R)-3-amino-1-piperidyl]ethyl 4-[[4-[[2-(6-methyl-2-pyridyl)pyrimidin-4-yl]amino]pyrimidin-2-yl]amino]thiophene-2-carboxylate] | 9.50 to 10.40 | 25.1 to 158
2 | Cc1cccc(-c2nccc(Nc3ccnc(Nc4ccc(CN5CC6(CCOC6)C5)cc4)n3)n2)n1 [Compound 372, N4-[2-(6-methyl-2-pyridyl)pyrimidin-4-yl]-N2-[4-(6-oxa-2-azaspiro[3.4]octan-2-ylmethyl)phenyl]pyrimidine-2,4-diamine] | 9.50 to 10.40 | 25.1 to 158
3 | Cc1cccc(-c2nccc(Nc3ccnc(Nc4cccc(NC(=O)C5CCN(C)CC5)c4)n3)n2)n1 [Compound 145, 1-methyl-N-[3-[[4-[[2-(6-methyl-2-pyridyl)pyrimidin-4-yl]amino]pyrimidin-2-yl]amino]phenyl]piperidine-4-carboxamide] | 9.50 to 10.40 | 25.1 to 158
4 | Cc1cccc(-c2nccc(Nc3ccnc(Nc4ccc(CN5CCCC(C(=O)O[C@H]6CCNC6)C5)cc4)n3)n2)n1 (mixture of isomers) [Compound 212, [rac-(3S)-pyrrolidin-3-yl] 1-[[4-[[4-[[2-(6-methyl-2-pyridyl)pyrimidin-4-yl]amino]pyrimidin-2-yl]amino]phenyl]methyl] piperidine-3-carboxylate] | 9.50 to 10.40 | 25.1 to 158
5 | Cc1cccc(-c2nccc(Nc3ccnc(Nc4ccc(C(=O)OC5CCNCC5)nc4)n3)n2)n1 [Compound 561, 4-piperidyl 5-[[4-[[2-(6-methyl-2-pyridyl)pyrimidin-4-yl]amino]pyrimidin-2-yl]amino]pyridine-2-carboxylate] | 9.50 to 10.40 | 25.1 to 158
6 | Cc1cccc(-c2nccc(Nc3ccnc(Nc4ccc(CN)cc4)n3)n2)n1 [Compound 187, N2-[4-(aminomethyl)phenyl]-N4-[2-(6-methyl-2-pyridyl)pyrimidin-4-yl]pyrimidine-2,4-diamine] | 9.50 to 10.40 | 25.1 to 158
7 | Cc1cccc(-c2nccc(Nc3ccnc(Nc4csc(C(=O)N5CCN[C@@H](CO)C5)c4)n3)n2)n1 [Compound 536, [(3R)-3-(hydroxymethyl)piperazin-1-yl]-[4-[[4-[[2-(6-methyl-2-pyridyl)pyrimidin-4-yl]amino]pyrimidin-2-yl]amino]-2-thienyl]methanone] | 9.50 to 10.40 | 25.1 to 158
8 | Cc1cccc(-c2nccc(Nc3ccnc(Nc4ccc(N5CCCC(C(=O)OCC6CNC6)C5)cc4)n3)n2)n1 (stereo not drawn) [Compound 433, azetidin-3-ylmethyl 1-[4-[[4-[[2-(6-methyl-2-pyridyl)pyrimidin-4-yl]amino]pyrimidin-2-yl]amino]phenyl]piperidine-3-carboxylate] | 9.50 to 10.40 | 25.1 to 158
9 | Cc1cccc(-c2nccc(Nc3ccnc(Nc4ccc(N5CCNCC5CC(=O)OCC(C)C)cc4)n3)n2)n1 (stereo not drawn) [Compound 41, isobutyl 2-[1-[4-[[4-[[2-(6-methyl-2-pyridyl)pyrimidin-4-yl]amino]pyrimidin-2-yl]amino]phenyl]piperazin-2-yl]acetate] | 9.50 to 10.40 | 25.1 to 158
10 | COc1cc(Nc2nccc(Nc3ccnc(-c4cccc(C)n4)n3)n2)ccc1NS(C)(=O)=O [Compound 18, N-[2-methoxy-4-[[4-[[2-(6-methyl-2-pyridyl)pyrimidin-4-yl]amino]pyrimidin-2-yl]amino]phenyl] methanesulfonamide] | 8.50 to 9.40 | 25.1 to 158
11 | Cc1cccc(-c2nccc(Nc3ccnc(Nc4csc(C(=O)O[C@@H]5CCNC5)c4)n3)n2)n1 [Compound 543, [(3R)-pyrrolidin-3-yl] 4-[[4-[[2-(6-methyl-2-pyridyl)pyrimidin-4-yl]amino]pyrimidin-2-yl]amino]thiophene-2-carboxylate] | 9.50 to 10.40 | 25.1 to 158
12 | Cc1cccc(-c2nccc(Nc3ccnc(Nc4cc(C(=O)O)ccn4)n3)n2)n1 [Compound 636, 2-[[4-[[2-(6-methyl-2-pyridyl)pyrimidin-4-yl]amino]pyrimidin-2-yl]amino]pyridine-4-carboxylic acid] | 7.50 to 8.40 | 1580 to 10000
13 | Cc1cccc(-c2nccc(Nc3ccnc(Nc4nc(C(=O)NCC5CNC5)cs4)n3)n2)n1 [Compound 42, N-(azetidin-3-ylmethyl)-2-[[4-[[2-(6-methyl-2-pyridyl)pyrimidin-4-yl]amino]pyrimidin-2-yl]amino]thiazole-4-carboxamide] | ≥ 10.50 | 25.1 to 158

Continued, in another order:

Row | pKi [1] | Structure (SMILES) | IC50 [2] [nM]
14 | 9.50 to 10.40 | Cc1cccc(-c2nccc(Nc3ccnc(Nc4cc(C(=O)OCC5CNC5)cs4)n3)n2)n1 [Compound 142, azetidin-3-ylmethyl 5-((4-((2-(6-methylpyridin-2-yl)pyrimidin-4-yl)amino)pyrimidin-2-yl)amino)thiophene-3-carboxylate] | 25.1 to 158
15 | 9.50 to 10.40 | Cc1cccc(-c2nccc(Nc3ccnc(Nc4ccc(NC(=O)N5CCN(C)CC5)cc4)n3)n2)n1 [Compound 330, 4-methyl-N-[4-[[4-[[2-(6-methyl-2-pyridyl)pyrimidin-4-yl]amino]pyrimidin-2-yl]amino]phenyl]piperazine-1-carboxamide] | 25.1 to 158
16 | 8.50 to 9.40 | Cc1cccc(-c2nc(CC(=O)NCCO)cc(Nc3ccnc(Nc4ccc(N5CCNCC5)cc4)n3)n2)n1 [Compound 498, N-(2-hydroxyethyl)-2-[2-(6-methyl-2-pyridyl)-6-[[2-(4-piperazin-1-ylanilino)pyrimidin-4-yl]amino]pyrimidin-4-yl]acetamide] | 200 to 1260
17 | 9.50 to 10.40 | Cc1cccc(-c2nccc(Nc3ccnc(Nc4cccc(NC(=O)C5(O)CCNC5)c4)n3)n2)n1 (stereo not drawn) [Compound 203, 3-hydroxy-N-[3-[[4-[[2-(6-methyl-2-pyridyl)pyrimidin-4-yl]amino]pyrimidin-2-yl]amino]phenyl]pyrrolidine-3-carboxamide] | ≤ 20
18 | 9.50 to 10.40 | CCOC(=O)CC1CNCCN1c1ccc(Nc2nccc(Nc3ccnc(-c4cccc(C)n4)n3)n2)cc1 (stereo not drawn) [Compound 241, ethyl 2-[1-[4-[[4-[[2-(6-methyl-2-pyridyl)pyrimidin-4-yl]amino]pyrimidin-2-yl]amino]phenyl]piperazin-2-yl]acetate] | 25.1 to 158
